Laboratory results taken from US8158647B2, “Substituted pyrrolopyridines and pyrazolopyridines as kinase modulators” (SGX Pharmaceuticals, Inc., priority 2007, dated 2012).

What was measured:
[1] = target: T1, purified and unphosphorylated T315I Abl kinase domain (ABL_T315I_0P) (Mus musculus, UniProt P00520, T315I); test: c-Abl T315I (unphosphorylated kinase domain) pyruvate kinase/lactate dehydrogenase coupled enzyme assay; format: biochemical; conditions: 10 μM ATP
T1 construct: The c-Abl T3151 KD (kinase domain) was purified as follows; Met-Ser-Leu (vector-derived residues) (N); made in house; host or cells: E. coli BL21(DE3) strains (Codon+RIL, or pSA0145 for the lambda phosphatase co-expression plasmid)
T1 sequence (P00520 242-493 T315I limits assumed): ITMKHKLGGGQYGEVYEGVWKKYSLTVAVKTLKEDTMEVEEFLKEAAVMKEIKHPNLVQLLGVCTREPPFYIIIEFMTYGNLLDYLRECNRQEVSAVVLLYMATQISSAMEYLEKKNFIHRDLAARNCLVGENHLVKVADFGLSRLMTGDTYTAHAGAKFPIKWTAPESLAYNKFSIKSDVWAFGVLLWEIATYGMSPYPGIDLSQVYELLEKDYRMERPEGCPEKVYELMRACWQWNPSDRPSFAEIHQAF

ABL P210WT BAF3 cells = target: T2, ABL P210WT BAF3 cells (Homo sapiens, UniProt P00519); test: 96-well XTT cell survival assay, BaF3 ABL P210WT; format: cell-based; conditions: ABL P210 WT, 72 hours, read-out: CELL BIO ABL P210WT BAF3 XTT (IC50)
T2 construct: ABL P210WT BAF3; fused on or other part: P11274 (Breakpoint cluster region protein)
Outline: (§1)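 Ba/F3 cells in RPMI 1640 with 10% FBS (IL-3 medium for maintenance) were seeded at 5000-8000 cells/well and exposed to compound dilutions in duplicate for 72 h at 37° C. Viability read by XTT/PMS, absorbance 405 nm minus 650 nm after 2-6 h.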

ABL T315I BAF3 cells = target: T3, ABL T315I BAF3 cells (Homo sapiens, UniProt P00519, T315I, cells depend on it); test: 96-well XTT cell survival assay, BaF3 ABL T315I; format: cell-based; conditions: 72 hours, read-out: CELL BIO ABL T315I BAF3 XTT (IC50)
T3 construct: ABL T315I BAF3; fused on or other part: P11274 (Breakpoint cluster region protein)
Outline: as §1

CN(C)C(=O)C(O)c1cncc(-c2cnc3[nH]cc(-c4ccccc4Cl)c3c2Cl)c1 (stereo not drawn) [2-{5-[4-Chloro-3-(2-chloro-phenyl)-1H-pyrrolo[2,3-b]pyridin-5-yl]-pyridin-3-yl}-2-hydroxy-N,N-dimethyl-acetamide]
ABL_T315I_0P (IC50) [1]: D (<0.01 μM) | GI50 (ABL P210WT BAF3 cells): 100 to 1000 nM | GI50 (ABL T315I BAF3 cells): 100 to 1000 nM

CN(C)C(=O)c1cncc(-c2cnc3[nH]cc(-c4cccc(F)c4F)c3c2Cl)n1
ABL_T315I_0P (IC50) [1]: D (<0.01 μM) | GI50 (ABL P210WT BAF3 cells): 100 to 1000 nM | GI50 (ABL T315I BAF3 cells): 100 to 1000 nM

Cn1nccc1C(O)c1cncc(-c2cnc3[nH]cc(-c4ccccc4F)c3c2Cl)c1 (stereo not drawn) [{5-[4-Chloro-3-(2-fluoro-phenyl)-1H-pyrrolo[2,3-b]pyridin-5-yl]-pyridin-3-yl}-(2-methyl-2H-pyrazol-3-yl)-methanol]
ABL_T315I_0P (IC50) [1]: D (<0.01 μM) | GI50 (ABL P210WT BAF3 cells): > 1000 nM | GI50 (ABL T315I BAF3 cells): > 1000 nM

Cc1noc(C)c1-c1c[nH]c2ncc(-c3cncc(C(=O)N(C)C)c3)c(Cl)c12 [5-[4-Chloro-3-(3,5-dimethyl-isoxazol-4-yl)-1H-pyrrolo[2,3-b]pyridin-5-yl]-N,N-dimethyl-nicotinamide]
ABL_T315I_0P (IC50) [1]: B (1.0-0.1 μM) | GI50 (ABL P210WT BAF3 cells): > 1000 nM | GI50 (ABL T315I BAF3 cells): > 1000 nM

CN(C)C(=O)c1cc(-c2cnc3[nH]cc(-c4cc[nH]n4)c3c2Cl)cnc1N [2-Amino-5-[4-chloro-3-(1H-pyrazol-3-yl)-1H-pyrrolo[2,3-b]pyridin-5-yl]-N,N-dimethyl-nicotinamide]
ABL_T315I_0P (IC50) [1]: C (0.1-0.01 μM) | GI50 (ABL P210WT BAF3 cells): > 1000 nM | GI50 (ABL T315I BAF3 cells): > 1000 nM

COc1ccccc1-c1c[nH]c2ncc(Br)c(N)c12 [5-Bromo-3-(2-methoxy-phenyl)-1H-pyrrolo[2,3-b]pyridin-4-ylamine]
ABL_T315I_0P (IC50) [1]: C (0.1-0.01 μM) | GI50 (ABL P210WT BAF3 cells): > 1000 nM | GI50 (ABL T315I BAF3 cells): > 1000 nM

CN(C)C(=O)c1cncc(-c2cnc3[nH]cc(-c4ccccc4F)c3c2Cl)n1 [6-[4-chloro-3-(2-fluoro-phenyl)-1H-pyrrolo[2,3,b]pyridine-5-]
ABL_T315I_0P (IC50) [1]: D (<0.01 μM) | GI50 (ABL P210WT BAF3 cells): 100 to 1000 nM | GI50 (ABL T315I BAF3 cells): 100 to 1000 nM

COc1ccccc1-c1c[nH]c2ncc(-c3cncc(C(O)C(=O)N(C)C)c3)c(C(F)(F)F)c12 (stereo not drawn) [2-Hydroxy-2-{5-[3-(2-methoxy-phenyl)-4-trifluoromethyl-1H-pyrrolo[2,3-b]pyridin-5-yl]-pyridin-3-yl}-N,N-dimethyl-acetamide]
ABL_T315I_0P (IC50) [1]: D (<0.01 μM) | GI50 (ABL P210WT BAF3 cells): 10 to 100 nM | GI50 (ABL T315I BAF3 cells): 10 to 100 nM

COc1ccccc1-c1c[nH]c2ncc(-c3cncc(C(O)C(=O)N(C)C)c3)c(OC)c12 (stereo not drawn) [2-Hydroxy-2-{5-[4-methoxy-3-(2-methoxy-phenyl)-1H-pyrrolo[2,3-b]pyridin-5-yl]-pyridin-3-yl}-N,N-dimethyl-acetamide]
ABL_T315I_0P (IC50) [1]: D (<0.01 μM) | GI50 (ABL P210WT BAF3 cells): 10 to 100 nM | GI50 (ABL T315I BAF3 cells): 10 to 100 nM

CN(C)C(=O)c1cncc(-c2cnc3[nH]cc(-c4ccccc4F)c3c2Cl)c1
ABL_T315I_0P (IC50) [1]: D (<0.01 μM) | GI50 (ABL P210WT BAF3 cells): 100 to 1000 nM | GI50 (ABL T315I BAF3 cells): 100 to 1000 nM

Nc1ncc(-c2cnc3[nH]cc(-c4cc(F)ccc4F)c3c2Cl)cc1C(=O)N1CC(O)C1 [{2-Amino-5-[4-chloro-3-(2,5-difluoro-phenyl)-1H-pyrrolo[2,3-b]pyridin-5-yl]-pyridin-3-yl}-(3-hydroxy-azetidin-1-yl)-methanone]
ABL_T315I_0P (IC50) [1]: D (<0.01 μM) | GI50 (ABL P210WT BAF3 cells): 100 to 1000 nM | GI50 (ABL T315I BAF3 cells): 100 to 1000 nM

CN(C)C(=O)C(O)c1cncc(-c2cnc3[nH]cc(-c4cccc(F)c4F)c3c2Cl)c1 (stereo not drawn) [2-{5-[4-Chloro-3-(2,3-difluoro-phenyl)-1H-pyrrolo[2,3-b]pyridin-5-yl]-pyridin-3-yl}-2-hydroxy-N,N-dimethyl-acetamide]
ABL_T315I_0P (IC50) [1]: D (<0.01 μM) | GI50 (ABL P210WT BAF3 cells): 100 to 1000 nM | GI50 (ABL T315I BAF3 cells): 100 to 1000 nM

CCN(C)C(=O)c1cc(-c2cnc3[nH]cc(-c4cc(F)ccc4F)c3c2Cl)cnc1N [2-Amino-5-[4-chloro-3-(2,5-difluoro-phenyl)-1H-pyrrolo[2,3-b]pyridin-5-yl]-N-ethyl-N-methyl-nicotinamide]
ABL_T315I_0P (IC50) [1]: D (<0.01 μM) | GI50 (ABL P210WT BAF3 cells): 100 to 1000 nM | GI50 (ABL T315I BAF3 cells): 100 to 1000 nM

CN(C)C(=O)c1cncc(-c2cnc3[nH]cc(-c4ccc(F)cc4)c3c2Cl)c1
ABL_T315I_0P (IC50) [1]: C (0.1-0.01 μM) | GI50 (ABL P210WT BAF3 cells): 100 to 1000 nM | GI50 (ABL T315I BAF3 cells): > 1000 nM

COc1ccc(F)cc1-c1c[nH]c2ncc(-c3cncc(C(O)c4ncccc4F)c3)c(Cl)c12 (stereo not drawn) [{5-[4-Chloro-3-(5-fluoro-2-methoxy-phenyl)-1H-pyrrolo[2,3-b]pyridin-5-yl]-pyridin-3-yl}-(3-fluoro-pyridin-2-yl)-methanol]
ABL_T315I_0P (IC50) [1]: D (<0.01 μM) | GI50 (ABL P210WT BAF3 cells): < 10 nM | GI50 (ABL T315I BAF3 cells): 10 to 100 nM

CN(C)C(=O)c1nc(-c2cnc3[nH]cc(-c4ccc(F)cc4)c3c2Cl)cnc1N [3-amino-6-[4-chloro-3-(4-fluoro-phenyl)-1H-pyrrolo[2,3-b]pyridin-5-yl]-pyrazine-2-carboxylic acid dimethylamide]
ABL_T315I_0P (IC50) [1]: C (0.1-0.01 μM) | GI50 (ABL P210WT BAF3 cells): 100 to 1000 nM | GI50 (ABL T315I BAF3 cells): 100 to 1000 nM

COc1ccc(C(F)(F)F)cc1-c1c[nH]c2ncc(-c3cnc(N)c(C(=O)N(C)C)c3)c(Cl)c12 [2-Amino-5-[4-chloro-3-(2-methoxy-5-trifluoromethyl-phenyl)-1H-pyrrolo[2,3-b]pyridin-5-yl]-N,N-dimethyl-nicotinamide]
ABL_T315I_0P (IC50) [1]: D (<0.01 μM) | GI50 (ABL P210WT BAF3 cells): 100 to 1000 nM | GI50 (ABL T315I BAF3 cells): 100 to 1000 nM

OC(c1cncc(-c2cnc3[nH]cc(-c4cccc(F)c4F)c3c2Cl)c1)c1ncccc1F (stereo not drawn) [{5-[4-Chloro-3-(2,3-difluoro-phenyl)-1H-pyrrolo[2,3-b]pyridin-5-yl]-pyridin-3-yl}-(3-fluoro-pyridin-2-yl)-methanol]
ABL_T315I_0P (IC50) [1]: D (<0.01 μM) | GI50 (ABL P210WT BAF3 cells): 100 to 1000 nM | GI50 (ABL T315I BAF3 cells): 100 to 1000 nM

OC(c1cccc(-c2cnc3[nH]cc(-c4ccccc4F)c3c2Cl)c1)c1ncco1 (stereo not drawn) [{3-[4-Chloro-3-(2-fluoro-phenyl)-1H-pyrrolo[2,3-b]pyridin-5-yl]-phenyl}-oxazol-2-yl-methanol]
ABL_T315I_0P (IC50) [1]: D (<0.01 μM) | GI50 (ABL P210WT BAF3 cells): > 1000 nM | GI50 (ABL T315I BAF3 cells): > 1000 nM

CN(C)C(=O)c1cncc(-c2cnc3[nH]cc(-c4ccc(F)cc4)c3c2Cl)n1 [6-[4-Chloro-3-(4-fluoro-phenyl)-1H-pyrrolo[2,3-b]pyridin-5-yl]-pyrazine-2-carboxylic acid dimethylamide]
ABL_T315I_0P (IC50) [1]: D (<0.01 μM) | GI50 (ABL P210WT BAF3 cells): 100 to 1000 nM | GI50 (ABL T315I BAF3 cells): > 1000 nM

CSc1ccccc1-c1c[nH]c2ncc(-c3cncc(C(=O)N(C)C)c3)c(Cl)c12 [5-[4-Chloro-3-(2-methylsulfanyl-phenyl)-1H-pyrrolo[2,3-b]pyridin-5-yl]-N,N-dimethyl-nicotinamide]
ABL_T315I_0P (IC50) [1]: D (<0.01 μM) | GI50 (ABL P210WT BAF3 cells): > 1000 nM | GI50 (ABL T315I BAF3 cells): > 1000 nM

CN(C)C(=O)c1nc(-c2cnc3[nH]cc(-c4ccccc4)c3c2Cl)cnc1N [3-Amino-6-(4-chloro-3-phenyl-1H-pyrrolo[2,3-b]pyridin-5-yl)-pyrazine-2-carboxylic acid dimethylamide]
ABL_T315I_0P (IC50) [1]: D (<0.01 μM) | GI50 (ABL P210WT BAF3 cells): 100 to 1000 nM | GI50 (ABL T315I BAF3 cells): 100 to 1000 nM

OC(c1cccc(-c2cnc3[nH]cc(-c4ccc(F)cc4)c3c2Cl)c1)c1ncco1 (stereo not drawn) [{3-[4-Chloro-3-(4-fluoro-phenyl)-1H-pyrrolo[2,3-b]pyridin-5-yl]-phenyl}-oxazol-2-yl-methanol]
ABL_T315I_0P (IC50) [1]: C (0.1-0.01 μM) | GI50 (ABL P210WT BAF3 cells): > 1000 nM | GI50 (ABL T315I BAF3 cells): > 1000 nM

COc1ccc(F)cc1-c1c[nH]c2ncc(-c3cnc(N)c(C(=O)N(C)C)c3)c(Cl)c12 [2-Amino-5-[4-chloro-3-(5-fluoro-2-methoxy-phenyl)-1H-pyrrolo[2,3-b]pyridin-5-yl]-N,N-dimethyl-nicotinamide]
ABL_T315I_0P (IC50) [1]: D (<0.01 μM) | GI50 (ABL P210WT BAF3 cells): < 10 nM | GI50 (ABL T315I BAF3 cells): < 10 nM

COc1ccc(F)cc1-c1c[nH]c2ncc(-c3cncc(C(=O)N(C)C)c3)c(Cl)c12 [5-[4-Chloro-3-(5-fluoro-2-methoxy-phenyl)-1H-pyrrolo[2,3-b]pyridin-5-yl]-N,N-dimethyl-nicotinamide]
ABL_T315I_0P (IC50) [1]: D (<0.01 μM) | GI50 (ABL P210WT BAF3 cells): < 10 nM | GI50 (ABL T315I BAF3 cells): 10 to 100 nM

CNC(=O)c1cncc(-c2cnc3[nH]cc(-c4ccccc4F)c3c2Cl)n1
ABL_T315I_0P (IC50) [1]: C (0.1-0.01 μM) | GI50 (ABL P210WT BAF3 cells): > 1000 nM | GI50 (ABL T315I BAF3 cells): > 1000 nM

CN(C)C1CCN(C(=O)c2cc(-c3cnc4[nH]cc(-c5cc(F)ccc5F)c4c3Cl)cnc2N)C1 (stereo not drawn) [{2-Amino-5-[4-chloro-3-(2,5-difluoro-phenyl)-1H-pyrrolo[2,3-b]pyridin-5-yl]-pyridin-3-yl}-(3-dimethylamino-pyrrolidin-1-yl)-methanone]
ABL_T315I_0P (IC50) [1]: D (<0.01 μM) | GI50 (ABL P210WT BAF3 cells): 100 to 1000 nM | GI50 (ABL T315I BAF3 cells): 100 to 1000 nM

COc1cc(Cl)ccc1-c1c[nH]c2ncc(-c3cnc(N)c(C(=O)N(C)C)c3)c(Cl)c12 [2-Amino-5-[4-chloro-3-(4-chloro-2-methoxy-phenyl)-1H-pyrrolo[2,3-b]pyridin-5-yl]-N,N-dimethyl-nicotinamide]
ABL_T315I_0P (IC50) [1]: D (<0.01 μM) | GI50 (ABL P210WT BAF3 cells): 10 to 100 nM | GI50 (ABL T315I BAF3 cells): 10 to 100 nM
